# Data as given in US8404651B2, “Compositions and methods for treating viral infections” (priority 2008, dated 2013).
# “And” between values parts separate entries of the source, which are not always exact repeats. Identical values can stand only once.
# What was measured:
# [1] = MTT cytotoxicity assay, HFF; assay type: cell-based; settings: human, HFF cells, 24-hour incubation
# Experimental: Cellular cytotoxicity profile of the compounds was carried out against a panel of cell lines. Standard MTT assays were performed in 96-well plates using the Promega CellTiter96 Non-radioactive Cell Proliferation Assay Kit in conjunction with a 96-well Plate Reader (ThermoMax, Molecular devices), and MDBK, Vero, and HFF cell lines (obtained from ATCC). Several controls were employed including the nucleoside analogs 3TC, AZT, and ddC, as well as, media without drugs. SDS was used as a positive cytotoxic control. The compounds were tested in triplicate at concentrations of 100, 300, and 1000 μM. Following a 24-hour incubation of cells with the test substance, the MTT assay was carried out.
# TA1535 = experiment: In vitro bacterial mutagenicity assay (pre-incubation), strain TA1535; settings: for Number of revertants x1, x2, x3: individual plates
# Experimental: Dispense 100 microliter aliquots of the appropriate bacterial cultures into sample tubes stored on ice. Dispense aliquots of the vehicle, positive controls or dose formulations into the appropriate sample tubes. 2 mL top Agar and HBT cap was added to the sample tube, inverted three times and poured into MG plate. The lid was replaced on the plate and left on a level surface to let the agar harden. The plates were incubated in an incubator for 48 to 72 h. The background lawn and count the number of revertants was checked for each plate.
# [2] = TA1535, absence of S9, 50 μg/plate
# [3] = TA1535, absence of S9, 158 μg/plate
# [4] = TA1535, absence of S9, 500 μg/plate
# [5] = TA1535, absence of S9, 1581 μg/plate
# [6] = TA1535, absence of S9, 5000 μg/plate
# [7] = TA1535, presence of S9, 50 μg/plate
# [8] = TA1535, presence of S9, 158 μg/plate
# [9] = TA1535, presence of S9, 500 μg/plate
# [10] = TA1535, presence of S9, 1581 μg/plate
# [11] = TA1535, presence of S9, 5000 μg/plate
structure (smiles),measurement,setting,value
"COC1C(OP(=O)(OC[C@H]2O[C@@H](n3cnc4c(N)ncnc43)CC2O)SCOC(=O)OC(C)C)[C@@H](CO)O[C@H]1n1ccc(=O)[nH]c1=O (stereo partly drawn) [Compound 2, S-isopropylcarbonyloxymethyl thiophosphate (6k) of 3′dApsU2′OMe]",CC50 at 24 h,[1],> 1 mM
same,Number of revertants mean,TA1535; [2],14
same,"Number of revertants x1, x2, x3",TA1535; [2],10 and 15 and 16
same,Number of revertants mean,TA1535; [3],23
same,"Number of revertants x1, x2, x3",TA1535; [3],21 (2×) and 26
same,Number of revertants mean,TA1535; [4],17
same,"Number of revertants x1, x2, x3",TA1535; [4],15 and 20 and 17
same,Number of revertants mean,TA1535; [5],16
same,"Number of revertants x1, x2, x3",TA1535; [5],13 and 18 and 17
same,Number of revertants mean,TA1535; [6],18
same,"Number of revertants x1, x2, x3",TA1535; [6],18 (2×) and 17
same,Number of revertants mean,TA1535; [7],19
same,"Number of revertants x1, x2, x3",TA1535; [7],21 and 15 and 20
same,Number of revertants mean,TA1535; [8],16
same,"Number of revertants x1, x2, x3",TA1535; [8],11 and 20 and 16
same,Number of revertants mean,TA1535; [9],17
same,"Number of revertants x1, x2, x3",TA1535; [9],19 and 13 and 20
same,Number of revertants mean,TA1535; [10],22
same,"Number of revertants x1, x2, x3",TA1535; [10],27 and 21 and 17
same,Number of revertants mean,TA1535; [11],17
same,"Number of revertants x1, x2, x3",TA1535; [11],18 and 16 (2×)
